Read-outs that look alike come from different tables or passages of the source. Marks after values point to notes of the source that are not given here.
Key:
Caco-2 cell monolayers = experiment: Bidirectional transport (Papp, efflux ratio) of antimalarials through Caco-2 cell monolayers; assay type: in vitro ADME, human
Protocol: (§1) The initial experiments were conducted in mid-40s passage cells and repeated in early 80s passage Caco-2 cells. […] In order to maintain equivalent transport medium (HBSS/HBSS with inhibitor) level both outside and inside the chambers, 300 μL was used as medium in the apical chambers and 600 μL in the basolateral chambers. […] Drugs were co-incubated with MRCP, BCRP and ATP hydrolysis blockers to determine the involvement of other efflux mechanisms. Prior to the experiment, the transport medium, HBSS or HBSS with P-gp inhibitors were pre-incubated with the cells for 30 minutes. Following incubation, inserts were placed in new well plates and donor chamber is replaced with drug or drug with inhibitor and the receiver chamber with blank HBSS or HBSS with inhibitor. Transport medium was collected from the receiver chamber after stirring at time intervals of 30, 60, 90 and 120 minutes and was replaced with the same volume of fresh HBSS, or HBSS with inhibitor, when P-gp inhibitors were used in the study. At the end of the experiment 100 μL of medium was removed from the donor chamber in addition to medium collected from the receiver chamber during the study. The cells were then washed thoroughly in cold (4°C) PBS and cell membranes attached to the inserts were sonicated for 10 minutes in a sonicating water bath and centrifuged at 10,000 g for 10 minutes. Supernatant was frozen at -80°C until assayed. […] CL.vol=[…].vol = clearance volume (mL), n = time (min), Aa = amount in acceptor compartment at time n (pmols), Cd0 = concentration in donor compartment at time zero (nM), Vd = volume of the donor compartment (mL), Ca = concentration in acceptor compartment at the previous time point (nM), Vs = sample volume of previous time point (mL), Ac = amount of compound associated with the cells (pmol), Nfin = final time point (min). […] The cleared volume was plotted against time and the slope of the regression line was divided by the surface area to obtain the Papp values. […] The method from Davis and colleagues was adopted with slight modifications. Separations were performed using an Apollo C18 (5 μm, 4.6x150mm) column attached to a matched guard column (5 μm, 4.6x5.5 mm). […] The injection volume was 40 μL and column oven was maintained at 35°C. The analytes were detected at 222 nm and the retention time was 5.6 minutes. Assay developed by Pussard and co-workers were used and slight modifications were done to adjust laboratory conditions. Separation was done using a Prevail C18 (3 μm, 4.6x150mm) column attached to a Direct-connect^TM universal column prefilter. The mobile phase consisted of 20 mM (w/v) KH2PO4 in deionized water at pH 3.0 and acetonitrile (82:18) v/v. […] The injection volume was 40 μL and column oven was maintained at 30°C. The analytes were detected at 343 nm with a retention time of 2.4 minutes. […] Separations were performed using an Apollo C18 (5 μm, 4.6x150mm) column attached to matched guard column (5 μm, 4.6x5.5mm). […] The injection volume was 40 μL and column oven was maintained at 30°C. The analytes were detected at 660 nm with a retention time of 3.8 minutes. A 40 μL sample was spiked with 5 μL 0.5 mM artemisinin internal standard. […] The pipettor was adjusted to the maximum volume (100 μL). […] Pre-treated samples were loaded into the tips by gently aspirating and discarding into the same vial. The process was repeated 10 times in order to increase binding efficiency of drugs to the OMIX 96 C4 matrix. […] The LC-MS method described by […] and co-workers were modified to suit the LC-MS-MS conditions. […] Wexford, Ireland) at 40°C. […] Quantitation was performed in multiple reactions monitoring, MRM mode, using DUIS (ESI^+ and APCI^+) ion sources. […] The optimized mass spectra were acquired with an interface voltage of 4.5 kV, a detector voltage of 1.0 kV, a heat block temperature of 500°C and a desolvation temperature of 160°C.

[1] = as above; assay type: in vitro ADME, human; conditions: human; for Papp at 120 min: Caco-2, Caco-2 monolayers
Protocol: as §1

OC(c1cc(C(F)(F)F)nc2c(C(F)(F)F)cccc12)C1CCCCN1 (centres unmarked) [MQ, mefloquine]
Net flow direction (Caco-2 cell monolayers; Conc (μM) + inhibitor (μM): 10): Diffusion (0.02) ^*
Net flow direction (Caco-2 cell monolayers; Conc (μM) + inhibitor (μM): 20): Diffusion (0.66)
Net flow direction (Caco-2 cell monolayers; Conc (μM) + inhibitor (μM): 100): Diffusion (0.08)
drug absorption predicted from Papp (Caco-2 cell monolayers; based on FDA biopharmaceutical classification system): 50–84%
Papp at 120 min ([1]; drug alone, read-out: Ap-Bas directional Papp, range over concentrations tested): 6 to 10 ×10⁻⁶ cm/s
Papp at 120 min ([1]; drug alone, read-out: Bas-Ap directional Papp, range over concentrations tested): 5 to 7 ×10⁻⁶ cm/s
Papp at 120 min ([1]; read-out: permeability across the gastrointestinal epithelium (class)): 1 to 25 ×10⁻⁶ cm/s
Papp at 120 min ([1]; summary in abstract, methylene blue depending on the direction of transport, read-out: permeability): ~10 ×10⁻⁶ cm/s
efflux ratio at 120 min, 100 µM ([1]; Caco-2, Conc (μM) + inhibitor (μM): 100, Bas-Ap divided by Ap-Bas): 1.2
efflux ratio at 120 min, 10 µM ([1]; Caco-2, Conc (μM) + inhibitor (μM): 10, Bas-Ap divided by Ap-Bas): 0.7
Papp at 120 min, 10 µM ([1]; Caco-2, Conc (μM) + inhibitor (μM): 10, first-named drug measured, read-out: Papp Ap-Bas): 9.9 ± 0.7 ×10⁻⁶ cm/s
Papp B→A at 120 min, 10 µM ([1]; Caco-2, Conc (μM) + inhibitor (μM): 10, first-named drug measured, read-out: Papp Bas-Ap): 6.6 ± 0.4 ×10⁻⁶ cm/s
efflux ratio at 120 min, 20 µM ([1]; Caco-2, Conc (μM) + inhibitor (μM): 20, Bas-Ap divided by Ap-Bas): 0.9
Papp at 120 min, 20 µM ([1]; Caco-2, Conc (μM) + inhibitor (μM): 20, first-named drug measured, read-out: Papp Ap-Bas): 5.8 ± 0.7 ×10⁻⁶ cm/s
Papp B→A at 120 min, 20 µM ([1]; Caco-2, Conc (μM) + inhibitor (μM): 20, first-named drug measured, read-out: Papp Bas-Ap): 5.3 ± 0.9 ×10⁻⁶ cm/s
Papp at 120 min, 100 µM ([1]; Caco-2, Conc (μM) + inhibitor (μM): 100, first-named drug measured, read-out: Papp Ap-Bas): 8.9 ± 0.7 ×10⁻⁶ cm/s
Papp B→A at 120 min, 100 µM ([1]; Caco-2, Conc (μM) + inhibitor (μM): 100, first-named drug measured, read-out: Papp Bas-Ap): 11.4 ± 0.8 ×10⁻⁶ cm/s

Source: PMC4821601, “The Interactions of P-Glycoprotein with Antimalarial Drugs, Including Substrate Affinity, Inhibition and Regulation” (PLoS ONE, 2016)
